Reference: patent publication US6579899B1, “Composition for treatment of stress” (Massachusetts Institute of Technology, priority 1998, dated 2003)
“Also recorded” adds a separate entry of the source.

Legend:
obese, stressed patients [1] = assay: questionnaire rating appetite and hunger; format: in vivo, human; details: 30 mg/day, during the treatment period, initial score 10.5
Text: (§1) A subgroup of obese individuals is identified, which individuals describe themselves as being unable to control their eating and who attempt to continue on a weight-reducing diet when experiencing emotional distress. […]
(§2) Objective measurements of emotional distress are made in some patients using the CES-D (Center for […] Depression Form) test, which measures current levels of emotional distress (Radloff, et al., The CES-D Scale: A Self Report Depression Scale for Research in the General Population Applied Psychological Measurement 1: 385-401, 1977); and the POMS (Profile of Mood States test, that assesses tension, depression, anger and confusion (McNair, et al., Profile of Mood States Manual;San Diego: Educational and Industrial Testing Service, 1971); both of these references are hereby incorporated by reference in their entirety. These tests are also given monthly during the treatment period. At the same time, patients also complete questionnaires that ask the patients to rate their appetite and hunger, and also to rate their tendency to eat in response to a variety of emotional and stressful triggers. The patients are also weighed monthly.

rats = details: cited from earlier work
obese, stressed patients [2] = assay: questionnaire rating tendency to eat in response to emotional and stressful triggers; format: in vivo, human
Text: as §1, §2

obese, stressed patients [3] = assay: POMS (Profile of Mood States) test; format: in vivo, human; details: 30 mg/day, during the study period, baseline 24
Procedure: A subgroup of obese individuals is identified, which individuals describe themselves as being unable to control their eating and who attempt to continue on a weight-reducing diet when experiencing emotional distress. These patients are treated for four months by enrolling them in a weight loss program which includes the administration of dexfenfluramine at 30 mg/day and which involves adherence to a reduced-calorie meal plan.
as §2

obese, stressed patients [4] = assay: CES-D test of current levels of emotional distress in patients; format: in vivo, human
Text: as §1, §2

[5] = body weight in four month weight loss program; format: in vivo, human
Text: as §1, §2

CCN[C@@H](C)Cc1cccc(C(F)(F)F)c1 [dexfenfluramine]
score on the appetite and hunger scale (obese, stressed patients [1]): 5.0 | tail pressure/tail pinch-induced eating (rats; Rowland et al.): decrease the eating behavior | DI50, inhibition of tail pressure-induced eating (rats; reported by Garattini, quoted from Rowland et al.): 0.6 mg/kg | score on the emotional triggers to overeating report (obese, stressed patients [2]; 30 mg/day, end of the treatment period, from 23.4±9.8, ± standard deviations): 8.6±8.5 | Emotional Triggers (obese, stressed patients [2]; patient eleven, 30 mg/day, Month 4, baseline 30): 7 | Emotional Triggers (obese, stressed patients [2]; patient six, 30 mg/day, Month 4, baseline 23): 4 | Emotional Triggers (obese, stressed patients [2]; patient ten, 75 rising to 150 mg/day, Month 4, baseline 14): 2 | Emotional Triggers (obese, stressed patients [2]; patient three, 50 rising to 150 mg/day, Month 4, baseline 34): 24 | Emotional Triggers (obese, stressed patients [2]; patient twelve, 75 then 100 mg/day, Month 4, baseline 25): 3 | summed Tension, Depression, Anger and Confusion scores on the POMS test (obese, stressed patients [3]): 16.8 | lowered CES-D score (obese, stressed patients [4]; 30 mg/day, fifth of six women, from 15): 7 | lowered CES-D score (obese, stressed patients [4]; 30 mg/day, first of six women with above normal score at start, from 34): 7 | lowered CES-D score (obese, stressed patients [4]; 30 mg/day, fourth of six women, from 19): 5 | lowered CES-D score (obese, stressed patients [4]; 30 mg/day, second of six women, from 37): 8 | lowered CES-D score (obese, stressed patients [4]; 30 mg/day, sixth of six women, from 15): 3 | indicators of stress (obese, stressed patients [4]; 30 mg/day, stress-induced overeaters): reduces the indicators of stress | lowered CES-D score (obese, stressed patients [4]; 30 mg/day, third of six women, from 22): 9 | Mood Scores CES-D (obese, stressed patients [4]; patient eleven, 30 mg/day, Month 4, baseline 19): 4 | Mood Scores CES-D (obese, stressed patients [4]; patient six, 30 mg/day, Month 4, baseline 5): 1 | Mood Scores CES-D (obese, stressed patients [4]; patient ten, 75 rising to 150 mg/day, Month 4, baseline 8): 2 | Mood Scores CES-D (obese, stressed patients [4]; patient three, 50 rising to 150 mg/day, Month 4, baseline 23): 17 | Mood Scores CES-D (obese, stressed patients [4]; patient twelve, 75 then 100 mg/day, Month 4, baseline 29): 18 | ability of stressed overeaters to lose weight ([5]; 30 mg/day, four months, reduced-calorie meal plan): enhance the ability of stressed overeaters to lose weight; also recorded: promotes the ability to control food intake and to lose weight | weight at the end of 4 months ([5]; patient eleven, 30 mg/day, starting weight 90.0 kg): 82.6 kg | weight at the end of 4 months ([5]; patient eleven, 30 mg/day, starting weight 198 pounds): 181.7 pounds | weight after 4 months ([5]; patient six, 30 mg/day, starting weight 98.2 kg): 93.4 kg | weight after 4 months ([5]; patient six, 30 mg/day, starting weight 216 pounds): 205.5 pounds | weight after 4 months ([5]; patient ten, 75 rising to 150 mg/day, starting weight 83.6 kg): 76.8 kg | weight after 4 months ([5]; patient ten, 75 rising to 150 mg/day, starting weight 184 pounds): 169 pounds | weight after 4 months ([5]; patient three, 50 rising to 150 mg/day, starting weight 137.3 kg): 130 kg | weight after 4 months ([5]; patient three, 50 rising to 150 mg/day, starting weight 302 pounds): 286 pounds | weight at the end of 4 months ([5]; patient twelve, 75 then 100 mg/day, starting weight 90.0 kg): 82.6 kg | weight at the end of 4 months ([5]; patient twelve, 75 then 100 mg/day, starting weight 198 pounds): 182 pounds
